Measured values: patent US7476383B2, “Antibody selective for DR4 and uses thereof” (The UAB Research Foundation, priority 2000, dated 2009)

Tests used:
[1] = test system: 2LMP human breast cancer xenografts; assay: 2LMP breast cancer xenografts in athymic nude mice; format: in vivo
Method: Nude mice were inoculated s.c. with the human breast cancer cell line, 2LMP. Treatment with i.p. doses of 200 μg of 2E12 occurred on days 7, 10, 14, 17, 21, and 24 after tumor cell injection. Animals received i.v. adriamycin (doxorubicin) (6 mg/kg) on days 8, 12, and 16.
Athymic nude mice were injected s.c. with 3×10^7 2LMP cells. […] The growth of tumors was monitored over time. […] Tumor size and regression rates were determined.
Data from 6 independent experiments were analyzed by individual experiment. Treatment combinations were compared with respect to in vivo anti-tumor efficacy, i.e., inhibition of tumor growth, which was measured as three endpoints; extension of tumor doubling times, percentage of tumor regressions, and growth rates over time. The actual number of days at which the tumor doubled in surface area (product of two diameters) relative to baseline on day 7 after tumor cell injection was used in the doubling time analysis. The nonparametric Kruskal-Wallis test was used for median tumor doubling time comparisons between treatments. Fisher's exact test was used to compare the proportions of tumor regressions and relapse-free regressions across treatment groups. To determine if any combination therapy produced significant synergistic inhibition of tumor growth, i.e., more than additive, the growth curves from the serial area measurements were compared using a linear mixed model approach over the first 3 weeks after start of therapy (Lindsey, J. K. Models for Repeated Measurements, pp. 100-142, Oxford, 1993). To test for synergistic effects of the combination therapies, an interaction term was included in the model. If the interaction term was significant and the effect was inhibition of growth at a rate greater than additive then the interaction was considered synergistic.
A total of 166 animals, 10 treatment groups, and 6 independent experiments were included in the aggregate analysis. Treatment combinations were compared with respect to in vivo anti-tumor efficacy. The median tumor doubling times were analyzed using the Kruskal-Wallis test and Fisher's exact test was used to compare the proportions of tumor regressions and relapse-free regressions across treatment groups.

2LMP xenografts = assay: TUNEL analysis of apoptosis in xenografts; format: in vivo, athymic nude mice; conditions: day 14; untreated 1%
Method: One group of mice was untreated. The xeno grafts were dissected for the study of apoptosis on day 14 after tumor cell injection. The reason for the substantial reduction in treatment intensity compared to our standard treatment protocol was to allow adequate tumor tissue for analysis on day 14. Tunel assay for apoptosis in tumor xenografts was performed as follows. Five-micron paraffin sections of tissue were mounted on Superfrost/Plus slides and heated at 58° C. for 1 h. Tissue sections were deparaffinized in three changes of xylene and rehydrated with one change of absolute ethanol, 95% ethanol, and 70% ethanol, each in 5-min increments. Then, the sections were placed in Tris-buffered saline (0.5M Tris base, 0.15 M NaCl, 0.0002% Triton X-100, pH 7.6). Apoptotic nuclei were detected using an Apop Tag Peroxidase kit (Intergen, Purchase, N.Y.). Proteinase K (20 μg/ml in distilled deionized H2O) was added to the tissue specimens and incubated at room temperature for 15 min. Endogenous peroxidases were quenched with an aqueous solution of 3% hydrogen peroxide for 5 min. […] Approximately 10 random fields were evaluated for percentage of Tunel stained and percentage of intensely stained apoptotic bodies throughout the tissue.

[2] = test system: Human prostate cancer cell line PC-3; assay: Combination study with Paclitaxel, XTT; format: cell-based; conditions: 24 h
Method: Human prostate cancer cell line PC-3 is obtained from American Tissue Culture Collection (ATCC) and maintained in F-12K Nutrient Mixture (21127-022, Gibco BRL) containing 10% fetal bovine serum (FBS, Hyclone), 1% L-Glutamine-200 mM (25030-149, Gibco BRL) and 0.5% Penicillin Streptomycin Solution (P-7539, Sigma). RPMI1640 medium (MED-008, IWAKI) supplemented with 10% FBS and 0.5% Penicillin Streptomycin Solution is used in the following experiment. Exponentially growing PC-3 cells are collected by trypsinization and washed twice with fresh medium. The cells are then counted, resuspended in fresh medium at a density of 5×10^4 cells/ml and distributed in triplicate into flat-bottomed 96 well plates (3598, Coming-Coster) in a total volume of 100 μl/well one day before the start of the experiment. A representative anti-cancer drug, Paclitaxel (169-18611, Wako) dissolved in dimethylsulfoxide (10 mg/ml) is diluted in fresh medium and then added to the 96-well plates containing the cells at 50 μl/well. The final concentrations of dimethylsulfoxide are less than 0.1%. […] After incubation for a further 24 hr, 50 μl of Minimum Essential Medium (11095-098, Gibco BRL) containing 1 mg/ml of XTT and […] of PMS is added to the wells and the plates are incubated for 6 hr. OD450 is then measured by SPECTRA MAX 250 (Molecular Devices) and the cell viability is calculated as follows.

Jurkat cells = assay: Apoptosis-inducing activity of humanized antibody, XTT; format: cell-based, human; conditions: 12 hours
Method: Jurkat cells cultured in RPM11640 medium with 10% FCS (Gibco BRL) at 37° C. for 3 days in the presence of 5% CO2 are dispensed into each well of a 96-well microplate (Sumitomo Bakelite) at 50 μl per well. […] Each of the solutions of the expression products thus adjusted to 100 ng/ml is used to produce serial dilutions by repeating serial 2-fold dilution with RPM1640 containing 10% FCS. […] After reacting at 37° C. for 12 hours, 50 μl of 25 μM PMS (phenazine methosulfate; Sigma Chemical Co.) containing 1 mg/ml XTT (2,3-bis[2-methoxy-4-nitro-5-sulfophenyl]-2H-tetrazolium-5-carboxyaniride inner salt; Sigma Chemical Co.) is added (final concentrations of 250 μg/ml for XTT and 5 μM for PMS). After incubating for 3 hours, the absorbance at 450 nm of each well is measured to calculate the cell viability by using the reduction ability of mitochondria as the index.
The viability of the cells in each well is calculated according to the following formula: Viability (%)=100×(a−b)/(c−b) wherein “a” is the measurement of a test well, “b” is the measurement of a well with no cells, and “c” is the measurement of a well with no antibody added.
Jurkat cells cultured in RPMI1640 medium with 10% FCS (Gibco BRL) at 37° C. for 3 days in the presence of 5% CO2 are dispensed into each well of a 96-well microplate (Sumitomo Bakelite) at 50 μl per well. […]

[3] = aggregate, number of animals (%)

For `CC(=O)O[C@H]1C(=O)[C@@]2(C)[C@H]([C@H](OC(=O)c3ccccc3)[C@]3(O)C[C@H](OC(=O)[C@H](O)[C@@H](NC(=O)c4ccccc4)c4ccccc4)C(C)=C1C3(C)C)[C@]1(OC(C)=O)CO[C@@H]1C[C@@H]2O` [Paclitaxel], which “Complete Regressions No relapse (%)” value [1, 3] is on record?
Its value is 0.

What about the “Complete Regressions Total (%)” value [1, 3] of the same molecule?
The value was 0.

And the “complete regressions of tumor” value ([1]; individual experiments (FIG. 25-27), animals)?
Its value is “none”.

What about the “intense TUNEL stained cells” value (2LMP xenografts) of the same molecule?
Its value is 2%.

And the viability at 0.0001 µg/mL [2]?
Its viability at 0.0001 µg/mL is greater than 40%.

B1: humanized TRA-8: humanized TRA-8, cotransfection of pHB14-1 and pSR/M2-1 (H2 type heavy chain, LM2 light chain) (antibody)
VH: EVMLVESGGGLVQPGGSLRLSCAASGFTFSSYVMSWVRQAPGKGLEWVATISSGGSYTYYPDSVKGRFTISRDNAKNTLYLQMNSLRAEDTAVYYCARRGDSMITTDYWGQGTLVTVSS
light: DIVMTQSPSSLSASVGDRVTITCKASQDVGTAVAWYQQKPGKAPKLLIYWASTRHTGVPSRFSGSGSGTDFTLTISSLQPEDFATYYCQQYSSYRTFGQGTKVEIKRTVAAPSVFIFPPSDEQLKSGTASVVCLLNNFYPREAKVQWKVDNALQSGNSQESVTEQDSKDSTYSLSSTLTLSKADYEKHKVYACEVTHQGLSSPVTKSFNRGEC
For B1, which apoptosis-inducing activity (Jurkat cells) is on record?
The apoptosis-inducing activity was “induce apoptosis”.
